Test results as given in paper PMC11286589, “Population pharmacokinetics and exposure–response analyses of SAF-189s in Chinese patients with ALK+/ROS1+ non-small cell lung cancer” (Frontiers in Pharmacology, 2024).
Where two headings read alike, the source gives them in different places.

Tests used:
[1] = Adverse events in patients of study SAF001; type: in vivo, human
Description: All studies were conducted in accordance with the Good Clinical Practice guidelines and Declaration of Helsinki. The protocols were approved by the independent ethics committee of each investigation site, and all subjects provided informed consent. The tumor responses were assessed by the IRC based on the Response Evaluation Criteria in Solid Tumors (RECIST) 1.1 conditions. The exposure–efficacy analyses of SAF-189s were conducted based on data from patients in the SAF001 study to explore the relationships between systemic exposure and efficacy endpoints, including the ORR, PFS, and duration of response (DOR). The exposure–safety analyses of SAF-189s were conducted based on data from patients in the SAF001 study to explore the relationships between the systemic exposure and safety endpoints, including the adverse events (AEs) of interest. In these studies, the SAF-189s plasma concentrations were analyzed using validated liquid chromatography tandem mass spectrometry within the assay range of 0.5–150 ng mL^–1.
The exposure–safety relationships were characterized using the exposure metrics to the first occurrence of an event. The AEs of interest selected for analysis included hyperglycemia and proteinuria. The individual post hoc PK parameters from the final PopPK model and the first dosage were used to calculate the Cmin,ss, Cmax,ss, and AUCss at steady state, which were used as the exposure metrics. The exposure–safety analysis was performed using a logistic regression modeling approach.

[2] = set-up: method as in Qin et al., 2023; conditions: ref Qin et al., 2023, cited from earlier work
[3] = system: efflux transporter P-gp; conditions: in vitro studies, no reference given; cited from earlier work
[4] = system: ALK+/ROS1+ advanced NSCLC; assay: Phase I/II study (SAF001, NCT04237805): tumor response, IRC, RECIST 1.1; type: in vivo, human
Text: A first-in-human phase I/II study (NCT04237805) enrolled patients with advanced ALK+/ROS1+ NSCLC with or without asymptomatic CNS metastases. […] The population PK analysis included data from one phase I study of SAF-189s conducted with healthy subjects (study STL31147; n = 24) and one phase I/II study conducted with Chinese patients having ALK+/ROS1+ advanced NSCLC (study SAF001; n = 299). STL31147 was a single-center, randomized, open-label, two-period (fed and fasting), and two-sequence crossover study on healthy Chinese adults. The volunteers received SAF-189s at a dose of 160 mg orally once in each period, with a washout period of 14 days. Blood samples (3 mL) were collected after each SAF-189s administration at 0 (predose), 1, 2, 3, 4, 6, 8, 10, 12, 24, 48, 72, 120, and 168 h post dosing. SAF001 was a multicenter, open-label, and single-arm phase I/II study to evaluate the safety, tolerability, pharmacokinetics, and antitumor activity of SAF-189s in patients with advanced ALK+ NSCLC (phase I) and ALK+/ROS1+ NSCLC (phase II). In the dose escalation portion, the study treatment included a single-agent 3-day PK run-in period and a continuous treatment period. The dosing regimens were 20, 40, 80, 120, 160, and 210 mg QD for 21 days in 21-day cycles during the continuous treatment period. In phase II, the patients received 80, 120, 160, and 210 mg of SAF-189s (phase IIa) or 160 mg (phase IIb) QD over 21-day cycles. All studies were conducted in accordance with the Good Clinical Practice guidelines and Declaration of Helsinki. The protocols were approved by the independent ethics committee of each investigation site, and all subjects provided informed consent. The tumor responses were assessed by the IRC based on the Response Evaluation Criteria in Solid Tumors (RECIST) 1.1 conditions. The exposure–efficacy analyses of SAF-189s were conducted based on data from patients in the SAF001 study to explore the relationships between systemic exposure and efficacy endpoints, including the ORR, PFS, and duration of response (DOR). The exposure–safety analyses of SAF-189s were conducted based on data from patients in the SAF001 study to explore the relationships between the systemic exposure and safety endpoints, including the adverse events (AEs) of interest. In these studies, the SAF-189s plasma concentrations were analyzed using validated liquid chromatography tandem mass spectrometry within the assay range of 0.5–150 ng mL^–1.

[5] = system: CYP3A; conditions: no reference given; cited from earlier work
[6] = high-fat meal vs fasted, single dose 160 mg
[7] = single dose 160 mg, unaffected by food

For `Cc1cc(Nc2ncc(Cl)c(Nc3ccccc3S(=O)(=O)C(C)C)n2)c2c(c1C1CCN(C)CC1)C[C@@H](C)O2` [SAF-189s], the tolerability ([1]; 160 mg QD dosing regimen) was “well tolerated”, the “incidence of drug-related TEAE leading to permanent discontinuation” value ([1]; 160 mg dose group) was 2% and the “incidence of grade ≥3 TEAE” value ([1]; 160 mg dose group, ALK+ and ROS1+ patients (n = 153)) was “less than 9.15%”. The tolerability ([1]; 210 mg dose vs other lower doses) was “less tolerated”, the “incidence rate of hyperglycemia” value ([1]; SAF001 patients, any grade) was 55.74% and the “Diarrhea, number of patients (%)” value ([1]; any grade, N = 296) was 65 (21.96%). The “Hypercholesterolemia or cholesterol increase, number of patients (%)” value ([1]; any grade, N = 296) was 111 (37.50%), the “Hyperglycemia, number of patients (%)” value ([1]; any grade, N = 296) was 165 (55.74%) and the “Nausea, number of patients (%)” value ([1]; any grade, N = 296) was 112 (37.84%). The “Proteinuria, number of patients (%)” value ([1]; any grade, N = 296) was 90 (30.41%), the “Vomiting, number of patients (%)” value ([1]; any grade, N = 296) was 102 (34.46%) and the “Diarrhea, number of patients (%)” value ([1]; ≥ Grade 2, N = 296) was 17 (5.74%). The “Hypercholesterolemia or cholesterol increase, number of patients (%)” value ([1]; ≥ Grade 2, N = 296) was 27 (9.12%), the “Hyperglycemia, number of patients (%)” value ([1]; ≥ Grade 2, N = 296) was 82 (27.70%) and the “Nausea, number of patients (%)” value ([1]; ≥ Grade 2, N = 296) was 8 (2.70%). The “Proteinuria, number of patients (%)” value ([1]; ≥ Grade 2, N = 296) was 28 (9.46%), the “Vomiting, number of patients (%)” value ([1]; ≥ Grade 2, N = 296) was 15 (5.07%) and the “intersubject variability AUC0-t” value ([2]; fasted) was 33.8%. For the same molecule, the “intersubject variability AUC0-∞” value ([2]; fasted) was 34.6%, the “intersubject variability Cmax” value ([2]; fasted) was 23.0% and the “intersubject variability AUC0-t” value ([2]; fed) was 31.3%. The “intersubject variability AUC0-∞” value ([2]; fed) was 32.8%, the “intersubject variability Cmax” value ([2]; fed) was 19.7% and the “geometric mean ratio AUC0-t” value [2, 6] was 105.1%. The “geometric mean ratio Cmax” value [2, 6] was 109.1%, the “Tmax (median)” value [2, 7] was 6 h and the “t½ (mean)” value [2, 7] was “around 35 h”. The P-gp inhibitor [3] was “inhibitor”, the P-gp substrate [3] was “substrate” and the ORR ([4]; 160-mg dose group, ROS1+ treatment-naive patients (n = 59)) was 89.83%. For the same molecule, the ORR ([4]; ALK+ and ROS1+ patients (n = 244)) was 78.69%, the ORR ([4]; ROS1+ treatment-naive subgroup (n = 68)) was 91.18% and the ORR ([4]; ROS1+ treatment-resistant patients (n = 32)) was 40.62%. For the same molecule, the CYP3A substrate [5] was “substrate of CYP3A”.
